# Results taken from patent US11306066B2, “4H-pyran compounds as insulin-regulated aminopeptidase (IRAP) inhibitors” (Monash University, priority 2015, dated 2022).
# Tested on: primary cultures of rat hippocampal neurons
# Experiment: In vitro hippocampal spine density
# Type: cell-based
# Conditions: chronic treatment (3 doses of 10^−5M), days 14, 17 and 20; FIG. 1
# From the text: In Vitro Hippocampal Spine Density
# Dendritic spines are a complex, distinct cellular compartment that protrude from neuronal processes, and act as a source of synaptic contact vital for plasticity, signalling and neuronal integration. Hippocampal spine density increases in the rat brain after learning of an associative task, thereby acting as a substrate for the new memories. Drugs that enhance actin reorganisation in dendritic spines, a requirement for stabilisation of memory, have been proposed for the treatment of memory disorders.
# Hippocampi from E18 rat pups were dissected into cold Hank's Basic Salt Solution, rinsed three times and incubated in 5 ml of 0.12% w/v trypsin and 40 μg/ml DNAse (Sigma-Aldrich, St. Louis, USA) for 20 minutes at 37° C. Clumped cells were triturated for one minute with a sterile 1 ml pipette. […] Cell density in a 1/10 dilution was measured using a haemocytometer. […]
# For immunohistochemical staining of spines, coverslips were removed from plates and washed in PBS, then incubated in PBSX for 15 minutes to permeabilise membranes. […] Spines highlighted by drebrin immunostaining were counted in Image J. Single neurites were identified and all spines along a fifty micron segment were counted. […]
compound,measurement,value
CC(=O)C1=C(C)OC(N)=C(C#N)C1c1ccc(C(=O)O)cc1.N (stereo not shown) [Test Compound 1],dendritic spine densities,statistically significant increases
